Here are results for one compound from patent US20110066134A1, “Controlling Drug Transport and Current in Iontophoretic Onychomycosis Treatment” (Nitric Biotherapeutics, Inc., priority 2009, published 2011).

The nature of one data set: clinical. As to conditions: human, in vivo. As for the experimental part: Both applicator designs were used in clinical studies, including clinical nail samples at various iontophoretic dose levels taken 24 hours post treatment. For an average dose of about 8 mA-min, drug amounts for masked drape clipping assays averaged about 423 ug/g and full drape clippings averaged about 842 ug/g. The clipping sizes and volumes varied (n=80, mean=[…], sd=1.8). The amount of drug found in nail clippings for the masked drape treatments appeared to be lower than expected given the higher current concentration in nail vs. levels found for the full drape treatments at a lower level of nail current.
It is believed that the lower drug levels found during the clinical study from nail clippings in the masked drape applications was the result of samples at the extremities of the nail. As contemplated herein, the presence of a drug delivery gradient is supported by the location of clinical nail samples, the results of current distribution modeling and the cadaver toe experiments.
For example, the current measurement and drug loading maps for cadaver nail and toe as depicted in FIG. 3 indicate a significant gradient. Drug loading at the periphery of the nail was about 26 to 77 times less than drug loading in the center of the nail. Nail clippings for the masked drape group in the clinical studies provided herein were taken about 24 hours post treatment from the distal nail. Samples varied in size and volume, but averaged about 1.8 mm long. This size and location corresponds with the nail sampling performed in the cadaver toe experiments in the category of “peripheral 2” or “remaining” and depicted in FIG. 3A in about the 9 to 12 mm range. The current levels predicted by the model in the same areas correlate well with drug distribution samples, r=0.998, p=0.000.
Applying the cadaver transfer number for nail vs. skin to the in-vivo results yields an estimate for nail and drug delivered for both tissues (based upon resistance ratios calculated from measured voltages during the clinical study.)
FIG. 10 depicts the projected delivery of terbinafine into skin and nail for full drape using cadaver transfer number calculation. The mean level of terbinafine estimated to have been delivered with full drape treatments to patients in the clinical studies using this method is about 12.4 ug skin, 9.4 ug nail, as compared with a mean of about 15 ug skin and 14 ug nail for cadaver toes.

Data set [1] can be described thus: Cadaver toe delivery testing: iontophoretic terbinafine loading into nail, nail bed and surrounding tissue. In kind it is in vitro ADME. As for the experimental part: The results of drug loading experiments in cadaver toes reported by Nair [Nair et al., 2009, Pharm Res. 26(9):2194-201] were compared with current measurements made using the current test fixture of FIG. 1 and models for the two tissue groups. The experiments disclosed herein were conducted to determine 1) if a drug delivery gradient existed in masked drape applications, and how that correlated with drug assays in cadaver toes; and 2) to determine the proportion of current flowing in soft tissue vs. into nail in cadaver toe delivery, and to compare that with drug loading found by Nair in the two tissue types. It is believed that the transfer efficiency is higher in nail than into soft tissue.
Cadaver Toe Delivery Testing: Six cadaver toes were soaked in physiologic saline prior to treatment. Each terbinafine loaded applicator type (masked drape and full drape) was placed on the toe and iontophoretic treatment of 0.5 mA for 20 min was delivered. Post treatment, the nails, and sections of nail bed and surrounding tissue, were excised and analyzed. The amount of loaded terbinafine was compiled for each section. The iontophoretic power source and general configuration for the applicator on the cadaver toe are depicted in FIGS. 2A and 2B. Additional details regarding methods used and experimental details for cadaver toe delivery tests can be found in [Nair et al., 2009, Pharm Res. 26(9):2194-201].
FIG. 3A depicts drug assay results from cadaver nails following iontophoresis using a masked drape applicator, while FIG. 3B depicts current measurements taken at the same current levels through cadaver nail into agarose. Terbinafine sample data was compiled allocating samples to the same relative spacing as current sensing nodes in the current test fixture of FIG. 1. […] Results of finite element analysis for essentially masked electrodes over tissue that illustrate gradients with higher resolution can also be seen as provided by Kresteva and Papazov [Krasteva et al., Biomed Eng Online. 2002 Dec. 16; 1:7].
where tx is the transport number, F is Faraday's constant, A is area of application and zx is charge. For a particular “membrane” or “tissue type”, tx is the ratio of (charge, mobility and drug concentration of the charge carrier) to the product of these for all charge carriers, i is current and vcx is an electroosmotic term. Rather than determine individual elements of Kalia's formula, an aggregate transport number of skin (tskin) and nail & nail bed (tnail) can be calculated, essentially aggregating the factors and segmenting them into soft tissue plus nail/nail bed.
Where l is the amount of drug loaded for skin or nail. For a given dose in uA-min, the amount of terbinafine loaded into cadaver nail & nail bed vs. cadaver skin vs. delivered dose and calculated transfer number is
ltotal=lskin+lnail,lskin=dskin×tskin and lnail=dnail×tnail in ug/mA-min, (5)
where dskin, dnail is the product of current through skin (or nail) and time (dose), tskin, tnail is an aggregate of all factors related to delivery into skin (or nail) and lskin, lnail is the amount of terbinafine loaded into skin (or nail).
Table III lists the areas of delivery, current and transfer number calculations for the 6 cadaver toe trials. FIG. 9 depicts the average transport numbers including values calculated for current (for reference), skin alone in Franz cell and Rat.

Where [2] appears, read: cadaver toe, full drape, 0.5 mA for 20 min, average of 6 trials.
Where [3] appears, read: cadaver toe, full drape, 0.5 mA for 20 min, individual Trials 1-6.

Where “and” joins values, the source holds several entries; their conditions need not be identical. Equal entries are not always repeated.

For `CN(C/C=C/C#CC(C)(C)C)Cc1cccc2ccccc12` [terbinafine], in “clinical”, the “mean level of terbinafine estimated to have been delivered to nail” value was about 9.4 µg and the “mean level of terbinafine estimated to have been delivered to skin” value is given as “about 12.4 ug”. The compound further yielded a concentration at 24 h in “clinical” (Mean Nail Levels, Applicator Design Nail/Skin) of 988000 ng/g. The same compound showed a concentration at 24 h in the data set “clinical” (average drug amount in full drape clippings) of about 842000 ng/g. Further, the concentration at 24 h in the data set “clinical” (average drug amount in masked drape clipping assays) was about 423000 ng/g. Also, in data set [1] (setting [2]), the “tf nail = (ug/cm^2)/(dose/cm^2), Avg” value was 5.180 (ug/cm^2)/(dose/cm^2) and the “tf skin = (ug/cm^2)/(dose/cm^2), Avg” value is recorded as 2.181 (ug/cm^2)/(dose/cm^2). Moreover, in data set [1] (setting [3]), the “tf nail = (ug/cm^2)/(dose/cm^2)” value was 6.358 (ug/cm^2)/(dose/cm^2) and 7.438 (ug/cm^2)/(dose/cm^2) and 3.805 (ug/cm^2)/(dose/cm^2) and 2.328 (ug/cm^2)/(dose/cm^2) and 3.917 (ug/cm^2)/(dose/cm^2) and 7.237 (ug/cm^2)/(dose/cm^2); the “tf skin = (ug/cm^2)/(dose/cm^2)” value is 1.745 (ug/cm^2)/(dose/cm^2) and 1.632 (ug/cm^2)/(dose/cm^2) and 1.975 (ug/cm^2)/(dose/cm^2) and 2.368 (ug/cm^2)/(dose/cm^2) and 1.961 (ug/cm^2)/(dose/cm^2) and 3.403 (ug/cm^2)/(dose/cm^2). Besides, the “aggregate transport number for the nail-only application compared with nail in the full drape application” value in data set [1] (cadaver toe, n=4, p=0.032) is “less than the factor for nail in the full drape application”. For the same compound, the “delivery into skin compared with nail & nail bed” value in data set [1] (cadaver toes, about 0.5 mA for 20 min, p=0.78, n=6) is “statistical equivalence”. For the same compound, in data set [1] (cadaver toes, full drape), the “mean terbinafine delivered to nail” value is about 14 µg and the “mean terbinafine delivered to skin” value was “about 15 ug”.
